Results as given in article PMC4919790, “Allosteric modulation of AURKA kinase activity by a small-molecule inhibitor of its protein-protein interaction with TPX2” (Scientific Reports, 2016).
Where two headings read alike, the source gives them in different places.

How the values were obtained:
[1] = biological target: T1, AURKA-TPX2 interaction (His-tagged AURKA123–403 / TAMRA-labelled TPX2 1–43) (Homo sapiens, UniProt O14965); experiment: Fluorescence anisotropy (FA) competition assay: displacement of TAMRA-TPX2 1-43 from AURKA123-403
T1 sequence (O14965 123-403): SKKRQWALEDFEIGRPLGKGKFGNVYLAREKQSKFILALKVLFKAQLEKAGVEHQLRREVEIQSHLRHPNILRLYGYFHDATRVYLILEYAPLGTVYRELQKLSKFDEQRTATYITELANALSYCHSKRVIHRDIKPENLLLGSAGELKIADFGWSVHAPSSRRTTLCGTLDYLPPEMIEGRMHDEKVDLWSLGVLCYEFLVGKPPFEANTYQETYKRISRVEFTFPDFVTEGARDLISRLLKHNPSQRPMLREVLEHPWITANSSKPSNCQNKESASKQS
Description: The HTS actives were resupplied and retested to check for dose-dependent inhibition of the PPI in FA assay.

[2] = biological target: T2, AURKA (Aurora-AG-126-390) (Homo sapiens, UniProt O14965); experiment: Isothermal titration calorimetry; assay type: binding; conditions: for Kd: 25 °C; for Ligand efficiency (Leff): calculated using Ki or Kd values
T2 construct: was titrated into Aurora-AG-126-390 protein solution (30 μM); extra N-terminal Gly from cloning (the 'G' of the construct name); 6xHis (read by me from reverse primer 4); made in house; host or cells: E. coli BL21 (DE3) with pUBS550, co-expressed with lambda phosphatase (pBAT4-λPP)
T2 sequence (O14965 126-390): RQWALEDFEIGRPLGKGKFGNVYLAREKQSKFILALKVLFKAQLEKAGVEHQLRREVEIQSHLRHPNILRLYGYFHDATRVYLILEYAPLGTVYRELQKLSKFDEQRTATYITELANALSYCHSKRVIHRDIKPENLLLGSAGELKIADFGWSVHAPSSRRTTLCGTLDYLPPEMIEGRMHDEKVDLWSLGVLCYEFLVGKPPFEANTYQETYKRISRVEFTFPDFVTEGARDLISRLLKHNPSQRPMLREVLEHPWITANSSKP
Procedure: Calorimetric titrations were performed on an iTC200 (MicroCal, Inc.) device. Protein was buffer exchanged into ITC buffer (Buffer C with 2% DMSO). Titration experiments were performed at 25 °C with an initial injection (0.4 μL) at a duration of 0.8 s, followed by 19 injections (2 μL) at a duration of 4 s. […] Binding isotherms were fit by non-linear regression using the single-site model provided by Origin software (MicroCal, Inc.). The stoichiometry of the interaction (N), equilibrium association constant (Ka) and change of enthalpy (ΔH) were floated during the fitting.

[3] = biological target: T3, pT287/pT288 AURKA126–390 (Homo sapiens, UniProt O14965); experiment: HTRF in vitro kinase assay (KinEASE, Cisbio); assay type: biochemical; conditions: excess inhibitor (25x Ki), absence of TPX2
T3 construct: a T287/T288 doubly-phosphorylated recombinant AURKA126–390 in the absence of TPX2; 6xHis (inferred from reverse primer 4 of AurAG-126-390); made in house; host or cells: E. coli BL21 (DE3) with pUBS550
T3 sequence (O14965 126-390): T2 sequence (O14965 126-390)
Procedure: To test this hypothesis, we used a commercially available in vitro kinase assay (KinEASE, Cisbio) to measure AURKA-dependent phosphorylation of a generic peptide substrate by homogeneous time-resolved fluorescence (HTRF) assay (Supplementary Fig. 9). Enzymatic phosphorylation occurred in the presence of the substrate peptide and ATP, and the phosphorylated substrate was subsequently detected in a proprietary antibody detection step. These studies were performed using a T287/T288 doubly-phosphorylated recombinant AURKA126–390 in the absence of TPX2.
The volume of enzymatic reaction was 10 μL, [AURKA] = 5 ng/well, excess propriatory peptide substrate (1 μM) and ATP (100 μM). The reaction was incubated for 10 min. MLN8237 is an ATP-competitive inhibitor used as a positive control. […] Error bars represent standard deviation (n = 3).

[4] = biological target: T4, AURKAGSMGS-126-390 (non-phosphorylated, uncleaved His-tag) (Homo sapiens, UniProt O14965); experiment: In vitro auto-phosphorylation assay (anti-pT288 Western blot); assay type: biochemical; conditions: AurkinA 100 μM, ATP 100 μM, protein 30 μM, up to 40 min
T4 construct: Aurora-A kinase construct AurAGSMGS-126-391 was purified as described above; made in house; host or cells: E. coli BL21 (DE3) with pUBS550, co-expressed with lambda phosphatase
T4 sequence (O14965 126-391): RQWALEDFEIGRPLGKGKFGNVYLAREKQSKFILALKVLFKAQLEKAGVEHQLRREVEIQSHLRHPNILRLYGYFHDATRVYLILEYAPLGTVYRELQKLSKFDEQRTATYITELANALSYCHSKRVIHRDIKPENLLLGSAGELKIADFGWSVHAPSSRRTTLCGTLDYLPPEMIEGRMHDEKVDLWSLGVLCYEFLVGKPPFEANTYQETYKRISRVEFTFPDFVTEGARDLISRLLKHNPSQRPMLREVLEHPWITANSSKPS
Procedure: It has been extensively reported that auto-phosphorylation of […] in the activation loop stimulates AURKA kinase activity. […] For autophosphorylation experiments Aurora-A kinase construct […]-126-391 was purified as described above but using buffers containing no ATP and His-tag was left on the N-terminus. […] Control sample contained JNJ-7706621 (100 μM) that was added to the reaction prior ATP. 15 ng of each sample were run in 11% SDS-PAGE gels. Western blots were prepared by electro-blotting SDS-PAGE gels onto PVDF membranes (Millipore) and probing with anti-penta-his-tag antibody (1:2000 dilution, Qiagen, 34660) or anti-Aurora-A phosphoT288 antibodies (1:1000 dilution, Abcam, ab195748), followed by HRP conjugated […]-mouse antibodies (GE Healthcare) or HRP conjugated goat anti-rabbit antibodies (Abcam), respectively.

[5] = test system: AURKA on the spindle in mitotic HeLa cells; experiment: High-content microscopy assay of AURKA mislocalisation from spindle microtubules; assay type: cell-based; conditions: Homo sapiens, 2 h treatment, % cells with below threshold AURKA intensity under TPX2 mask
Procedure: For quantitative determination of Aurora-A mislocalisation from spindle microtubules, cells were plated at a density of 0.75 × 10^5 cells per well of a clear flat bottom 96-well plate. On each plate a set of wells were treated with doxycycline as a positive control. After 24 h the compounds were diluted in […] Bortezomib (Selleck Chemicals) and treated for 2 h. Hereafter all steps were carried out at room temperature. The cells were fixed by addition of freshly prepared PHEM-buffered formaldehyde (100 μL per well) for 10 minutes (100 mM PIPES, 20 mM HEPES, 5 mM EGTA, 2 mM MgCl2, 0.2% TritonX-100, 6.4% formaldehyde). These were permeablised with 100 μl of PBS-T-T (1X PBS/0.1% Triton- 100/0.1% Tween-20) for 10 min, blocked in 3% BSA-PBS-T-T for 30 min. Hereafter all the steps including dilution of antibodies was done in the blocking solution. A cocktail of primary antibodies (50 μL, mouse anti-TPX2, Abcam 32795, 18D5-1, 1:500; rabbit anti-Aurora A, Millipore EP1008Y, 1:1000) for 1.5 h and washed thrice with the blocking solution. […]
The plates were scanned using Molecular Translocation protocol with 40X objective with 3 flurophore recognising channels. […] The software generated an overlay of TPX2-stained spindles (channel 2), and the average intensity of the Aurora-A (channel 3) within that mask was scored. […]

[6] = test system: phosphorylated T288 (pT288) AURKA in mitotic HeLa cells; experiment: High-content AURKA T288-dephosphorylation assay; assay type: cell-based; conditions: Homo sapiens, read-out: EC50, % cells with below threshold pT288
Procedure: A modified version of the Aurora A mislocalisation assay using the same cells, doxycycline-treated controls, drugging plan, Bortezomib treatment, fixing protocol, Hoechst staining and secondary antibodies as above. The primary antibodies used were anti-phospho Aurora A Thr288 (Cell Signaling, #3079, 1:500) and anti-Histone H3 phospho S10 (Abcam, 14955, 1:2000). High-content imaging settings were the same as for the mislocalisation assay, but analysis was performed using the CellHealthProfiling v4 Bioapplication. Cells were identified in the Hoechst channel as above, and the resulting nuclear mask used for all subsequent measurements. Mitotic cells were selected from the images on the basis of phospho-histone H3 positivity, using a threshold 10 times above the image background. These selected cells were then measured for phospho-Aurora A staining intensity within a target area defined by expanding the nuclear mask by 8 pixels then collapsing it using a threshold for the phospho-Aurora channel, set to 3 times the background staining in this channel. Assay thresholds were calculated from the negative control wells of each plate as for the mislocalisation assay and ‘% dephosphorylated Aurora A T288’ scores were calculated for each well. EC50 values were calculated from four-parameter dose-response curves that were fitted using Prism GraphPad software (La Jolla, CA).

[7] = biological target: T5, AURKA / mCherry-TPX2 1–43 (Homo sapiens, UniProt O14965); experiment: Co-immunoprecipitation of AURKA and mCherry-TPX2 1-43 from HeLa cell lysates; conditions: cell lysates (500 µg) incubated 2 h, 25-400 µM, +DOX
T5 construct: endogenous in cells; host or cells: HeLa FlpIn TREx lysate; AURKA endogenous, mCherry-TPX2 1-43 stably transfected and doxycycline-induced
T5 sequence (O14965 1-403): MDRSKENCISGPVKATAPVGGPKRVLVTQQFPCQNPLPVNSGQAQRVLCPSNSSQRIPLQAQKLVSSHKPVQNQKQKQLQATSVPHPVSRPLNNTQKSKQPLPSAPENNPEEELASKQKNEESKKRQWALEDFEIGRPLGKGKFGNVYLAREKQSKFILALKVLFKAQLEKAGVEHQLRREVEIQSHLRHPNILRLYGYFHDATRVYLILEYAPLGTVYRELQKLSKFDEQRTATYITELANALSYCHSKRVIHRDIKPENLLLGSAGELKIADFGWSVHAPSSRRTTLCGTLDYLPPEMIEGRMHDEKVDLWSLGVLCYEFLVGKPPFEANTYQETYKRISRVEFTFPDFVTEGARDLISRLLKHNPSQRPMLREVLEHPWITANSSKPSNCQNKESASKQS
Procedure: Stable HeLa FlpIn TREx cell line expressing a fusion mCherry-TPX2_1–43 protein upon addition of doxycycline ([…]) was generated (Supplementary Methods). This cell line was used for further experiments. For immunoblotting, proteins were extracted in lysis buffer (50 mM HEPES, pH 7.4; 100 mM NaCl, 0.5% NP-40, 10 mM EDTA, 20 mM β-glycerophosphate, 1 mM DTT, 1 mM sodium orthovanadate, 1 mM PMSF, protease inhibitors and phosphatase inhibitor (Roche)). 0.5 mg of lysate was used for co-immunoprecipitation. mCherry pull down was performed using RFP-trap (Chromotrap) following manufacturers’ instructions. Extracts were resolved by SDS-PAGE, transferred to PVDF membrane, blocked in TBS-Tween (50 mM Tris pH 7.6, 150 mM NaCl, 0.1% Tween-20) plus 5% non-fat dried milk, and probed with primary antibodies at 4 °C overnight. Membrane was incubated with secondary mouse HRP (GE Healthcare, NXA931) and rabbit HRP antibodies (Jackson Laboratories, 111-036-047) for 1 h at room temperature and the signal was developed using ECL or ECL prime reagent (GE Healthcare).
co -‐immunoprecipitation
(1 picture or pasted object on this page, not shown here)

[8] = Average IC50, Supplementary Table 1, FA assay
[9] = Calculated Ki, Supplementary Table 1, free-concentration corrected Cheng-Prusov
[10] = IC50, inhibition of AURKA:TPX2 interaction in FA assay, Fig. 1b
[11] = Ki from FA competition assay, free-concentration corrected Cheng-Prusov equations

SMILES	IC50 [1, 8] [µM]	Ki [1, 9] [µM]	N (stoichiometry, ITC fit) ([2]; single-site model fit) [Sites]	∆H (ITC fit) ([2]; single-site model fit) [kcal/mol]	∆S (ITC fit) ([2]; single-site model fit) [cal/mol/deg]	Ligand efficiency (Leff) [2]	IC50 [1, 10] [µM]	Ki [1, 11] [µM]	also measured
O=C(O)c1cc(-c2cccc(Br)c2)nc2c(F)cccc12 [AurkinA, 2-(3-bromophenyl)-8-fluoroquinoline-4-carboxylic acid]			0.924	-23.09	-52.6				-T∆S of binding ([2]; ITC): 15.7 kcal/mol; ∆H of binding ([2]; ITC): -23.1 kcal/mol; Maximal inhibition of kinase activity (plateau) [3]: ~ 75%; Effect on auto-phosphorylation of AURKA (pT288) [4]: significantly delayed; EC50 [5]: 85 µM; EC50 [6]: 135 µM; Effect on co-immunoprecipitation of AURKA with RFP (mCherry-TPX2 1-43) [7]: inhibited
O=C(O)c1ccccc1NC(=O)c1cc(-c2ccccc2)nc2ccccc12 [compound 1]			0.975 ±0.0300	-5.917 ± 0.2397	2.92	0.25	41	8.9	Kd ([2]; read-out: Kd (ITC)): 10.6 µM; Kd ([2]; read-out: pKd (ITC) (converted)): 10.5 µM; K (association constant, ITC fit) ([2]; single-site model fit): 94700 ± 7610 M⁻¹; Effect of JNJ-7706621 on the compound's inhibition of the AURKA-TPX2 1-43 interaction ([1]; [JNJ] = 0.4 μM vs DMSO): unaffected
O=C(O)c1cc(-c2ccccc2)nc2ccccc12 [compound 3, 2-phenyl-4-carboxyquinoline, reference compound]	289	62.5				0.31	63	68	

Now from value to compound, other results behind:

IC50 [1, 8] [µM]	Ki [1, 9] [µM]	N (stoichiometry, ITC fit) ([2]; single-site model fit) [Sites]	∆H (ITC fit) ([2]; single-site model fit) [kcal/mol]	∆S (ITC fit) ([2]; single-site model fit) [cal/mol/deg]	Ligand efficiency (Leff) [2]	IC50 [1, 10] [µM]	Ki [1, 11] [µM]	SMILES	also measured
34.4	7.4							O=C(O)c1cc(-c2cccc(Br)c2)nc2ccc(Cl)cc12 [AA29]	
25.6	5.5							O=C(O)c1cc(-c2cccc(Br)c2)nc2ccccc12 [AA30]	
